Assay results published in ChEMBL document CHEMBL5131442, “Design and synthesis of Osthole-based compounds as potential Nrf2 agonists” (Bioorg Med Chem Lett, 2022).
Activity calls are given as the source filed them. The calls are words filed in the database; no cut-off is given here.

molecular target: T1, Nuclear factor erythroid 2-related factor 2 (Homo sapiens) (UniProt Q16236); assay: Agonist activity at Nrf2 (unknown origin) at 10 uM by dual-luciferase reporter gene assay; details: filed as agonist
T1 sequence (whole entry): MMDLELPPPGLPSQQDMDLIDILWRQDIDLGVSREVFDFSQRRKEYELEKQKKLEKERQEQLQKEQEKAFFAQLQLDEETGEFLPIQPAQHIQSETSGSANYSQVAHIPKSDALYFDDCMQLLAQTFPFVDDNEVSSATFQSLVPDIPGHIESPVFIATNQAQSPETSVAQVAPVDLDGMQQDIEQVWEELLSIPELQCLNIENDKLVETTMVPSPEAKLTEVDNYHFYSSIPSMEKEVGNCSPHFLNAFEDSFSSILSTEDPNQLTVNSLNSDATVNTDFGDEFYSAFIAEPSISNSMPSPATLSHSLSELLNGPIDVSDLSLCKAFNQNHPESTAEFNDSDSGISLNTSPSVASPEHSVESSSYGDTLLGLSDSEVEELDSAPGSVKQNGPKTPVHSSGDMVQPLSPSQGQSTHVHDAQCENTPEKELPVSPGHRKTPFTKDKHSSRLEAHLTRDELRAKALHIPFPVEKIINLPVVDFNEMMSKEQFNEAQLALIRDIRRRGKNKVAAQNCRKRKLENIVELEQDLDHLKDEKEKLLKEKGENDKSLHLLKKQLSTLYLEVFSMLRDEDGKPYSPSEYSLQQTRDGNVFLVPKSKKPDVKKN

fold change (FC)	SMILES
1.7	CC(C)(C)c1cc(O)ccc1O

molecular target: T1, Nuclear factor erythroid 2-related factor 2 (Homo sapiens); assay: Agonist activity at Nrf2 (unknown origin) at 20 uM by dual-luciferase reporter gene assay; details: filed as agonist

SMILES	fold change (FC)
CC(C)=CCc1c(OC(=O)Cc2c[nH]c3ccccc23)ccc2ccc(=O)oc12	1.55
Cc1ccc(-c2cc3cc(Br)c4c(c3oc2=O)CCC(C)(C)O4)cc1	1.61
COc1ccccc1-c1cc2cc(Br)c3c(c2oc1=O)CCC(C)(C)O3	1.58
COc1ccc2[nH]cc(CCNC(=O)Oc3ccc4ccc(=O)oc4c3CC=C(C)C)c2c1	0.98
COc1ccc2ccc(=O)oc2c1CC=C(C)C	1.18
CC1(C)CCc2c(c(Br)cc3cc(-c4ccccc4)c(=O)oc23)O1	2.57
CC(C)=CCc1c(OC(=O)NCCc2c[nH]c3ccc(C)cc23)ccc2ccc(=O)oc12	0.95
CC(C)=CCc1c(OC(=O)NCCc2c[nH]c3ccc(Cl)cc23)ccc2ccc(=O)oc12	0.79
CC(C)=CCc1c(OC(=O)Cc2c[nH]c3cc(Cl)ccc23)ccc2ccc(=O)oc12	1.65
COc1ccc(-c2cc3cc(Br)c4c(c3oc2=O)CCC(C)(C)O4)cc1	1.53
COc1ccc2c(CC(C)NC(=O)Oc3ccc4ccc(=O)oc4c3CC=C(C)C)c[nH]c2c1 (centres undefined)	0.73

Results, then the molecule that gave them:

fold change (FC)	SMILES
1.51	COc1ccc2c(CC(=O)Oc3ccc4ccc(=O)oc4c3CC=C(C)C)c[nH]c2c1
1.56	COc1ccc2[nH]c(C)c(CC(=O)Oc3ccc4ccc(=O)oc4c3CC=C(C)C)c2c1
1.51	CC(C)=CCc1c(OC(=O)Cc2c[nH]c3ccc(C)cc23)ccc2ccc(=O)oc12
1.69	CC1(C)CCc2c(c(Br)cc3cc(-c4ccc(OC(F)(F)F)cc4)c(=O)oc23)O1
1.41	CC(C)=CCc1c(OC(=O)Cc2c[nH]c3ccc(Br)cc23)ccc2ccc(=O)oc12
1.52	CC1(C)CCc2c(c(Br)cc3cc(-c4cccc(C(F)(F)F)c4)c(=O)oc23)O1
0.61	CC(C)=CCc1c(OC(=O)NCCc2c(C)[nH]c3ccccc23)ccc2ccc(=O)oc12
1.41	COc1cccc(-c2cc3cc(Br)c4c(c3oc2=O)CCC(C)(C)O4)c1
1.51	CC(C)=CCc1c(OC(=O)Cc2c(C)[nH]c3ccccc23)ccc2ccc(=O)oc12
1.59	COc1ccc2[nH]cc(CC(=O)Oc3ccc4ccc(=O)oc4c3CC=C(C)C)c2c1
0.95	CC(C)=CCc1c(OC(=O)NCCc2c[nH]c3ccccc23)ccc2ccc(=O)oc12
2.04	CC1(C)CCc2c(c(Br)cc3cc(-c4ccc(C(F)(F)F)cc4)c(=O)oc23)O1
1.26	CC1(C)CCc2c(c(Br)cc3cc(-c4ccc(F)cc4)c(=O)oc23)O1

molecular target: T2, Nuclear factor erythroid 2-related factor 2 (Homo sapiens, UniProt Q16236); assay: Activation of Nrf2 in HEK293T cells; type: cell-based; details: not given
T2 sequence (Q16236 whole entry): T1 sequence (whole entry)

EC50	SMILES
2.9 µM	CC1(C)CCc2c(c(Br)cc3cc(-c4ccccc4)c(=O)oc23)O1
4.55 µM	CC1(C)CCc2c(c(Br)cc3cc(-c4ccc(C(F)(F)F)cc4)c(=O)oc23)O1

molecular target: Kelch-like ECH-associated protein 1 (Homo sapiens) (UniProt Q14145); assay: Binding affinity to Keap1 in human A549 cells assessed as thermal stabilization by measuring change in melting temperature at 10 uM by cellular thermal shift assay; type: cell-based; details: not given
Sequence (Q14145 whole entry): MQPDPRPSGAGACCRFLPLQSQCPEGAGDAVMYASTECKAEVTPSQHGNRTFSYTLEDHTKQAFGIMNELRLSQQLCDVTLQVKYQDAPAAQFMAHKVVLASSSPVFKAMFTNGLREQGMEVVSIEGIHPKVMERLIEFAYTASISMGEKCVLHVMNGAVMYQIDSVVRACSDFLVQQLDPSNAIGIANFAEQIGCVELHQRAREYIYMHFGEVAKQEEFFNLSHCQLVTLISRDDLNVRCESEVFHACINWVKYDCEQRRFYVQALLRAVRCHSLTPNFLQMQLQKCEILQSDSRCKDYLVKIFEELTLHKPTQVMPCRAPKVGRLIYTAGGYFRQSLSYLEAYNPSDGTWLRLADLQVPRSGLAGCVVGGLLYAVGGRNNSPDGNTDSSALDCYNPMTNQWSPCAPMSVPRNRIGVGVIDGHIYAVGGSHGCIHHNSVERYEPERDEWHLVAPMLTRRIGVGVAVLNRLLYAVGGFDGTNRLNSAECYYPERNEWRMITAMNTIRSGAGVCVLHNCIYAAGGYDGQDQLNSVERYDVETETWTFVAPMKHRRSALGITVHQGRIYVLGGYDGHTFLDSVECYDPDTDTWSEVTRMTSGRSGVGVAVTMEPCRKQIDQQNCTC

Activity	SMILES
Active	CC1(C)CCc2c(c(Br)cc3cc(-c4ccccc4)c(=O)oc23)O1

molecular target: Keap1/Nrf2 (Homo sapiens) (UniProt Q16236+Q14145); assay: Inhibition of Keap1-Nrf2 protein-protein interaction in human A549 cells assessed as reduction in Nrf2 ubiquitination by immunoprecipitation analysis; type: cell-based; details: not given
Sequence (Q14145 whole entry, looked up, one chain of several): as the sequence (Q14145 whole entry) above

inhibition	SMILES
Active	CC1(C)CCc2c(c(Br)cc3cc(-c4ccccc4)c(=O)oc23)O1
